The target in test [1] is T1, MycG (Micromonospora griseorubida, UniProt Q59523).
T1 sequence (Q59523 1-397): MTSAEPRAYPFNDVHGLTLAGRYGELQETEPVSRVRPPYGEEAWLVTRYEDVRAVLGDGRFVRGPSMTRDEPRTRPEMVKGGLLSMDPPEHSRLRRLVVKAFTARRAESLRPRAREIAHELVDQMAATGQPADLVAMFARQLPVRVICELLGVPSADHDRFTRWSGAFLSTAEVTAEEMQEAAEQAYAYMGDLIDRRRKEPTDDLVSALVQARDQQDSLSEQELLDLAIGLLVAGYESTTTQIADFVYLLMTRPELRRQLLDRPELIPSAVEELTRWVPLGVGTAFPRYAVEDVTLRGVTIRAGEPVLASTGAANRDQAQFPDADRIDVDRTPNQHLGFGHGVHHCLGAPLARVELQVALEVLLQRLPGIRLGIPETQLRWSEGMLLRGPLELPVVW
Nature of the test: spectral substrate binding assay.

Test [2] deals with MycCI cytochrome P450, C-terminal 6 x His tagged (Micromonospora griseorubida) (UniProt Q83WF5). Nature of the test: spectral ferredoxin titration.
The target in test [3] is T1, MycG. Put plainly: spectral substrate binding assay. The source holds these as a separate data set.
Test [4] addresses T2, MycCI (Micromonospora griseorubida, UniProt Q83WF5).
T2 sequence (Q83WF5 1-388): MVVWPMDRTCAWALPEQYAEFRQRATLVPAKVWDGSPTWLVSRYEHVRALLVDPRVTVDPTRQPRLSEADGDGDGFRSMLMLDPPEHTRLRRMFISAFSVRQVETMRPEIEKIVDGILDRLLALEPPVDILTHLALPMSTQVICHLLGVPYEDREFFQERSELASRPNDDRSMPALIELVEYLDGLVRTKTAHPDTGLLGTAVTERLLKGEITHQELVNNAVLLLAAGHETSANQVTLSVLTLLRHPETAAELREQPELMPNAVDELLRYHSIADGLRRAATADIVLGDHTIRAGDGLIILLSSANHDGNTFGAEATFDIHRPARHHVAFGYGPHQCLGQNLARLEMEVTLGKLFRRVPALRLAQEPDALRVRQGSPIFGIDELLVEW
Nature of the test: spectral substrate binding assay.

Test [5] has as its target T3, MycCI cytochrome P450, C-terminal 6 x His tagged (Micromonospora griseorubida, UniProt Q83WF5 1-388).
T3 sequence (looked up): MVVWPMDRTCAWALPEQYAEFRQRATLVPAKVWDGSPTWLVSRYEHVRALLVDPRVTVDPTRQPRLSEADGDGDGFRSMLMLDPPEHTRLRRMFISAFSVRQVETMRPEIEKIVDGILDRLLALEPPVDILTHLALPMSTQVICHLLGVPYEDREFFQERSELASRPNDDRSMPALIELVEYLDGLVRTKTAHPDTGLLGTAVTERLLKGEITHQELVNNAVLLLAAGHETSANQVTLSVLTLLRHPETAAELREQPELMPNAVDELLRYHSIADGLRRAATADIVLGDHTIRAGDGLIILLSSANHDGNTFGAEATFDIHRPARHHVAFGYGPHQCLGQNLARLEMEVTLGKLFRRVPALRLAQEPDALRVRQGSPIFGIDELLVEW
Nature of the test: spectral ferredoxin titration.

The Kd is the concentration at which binding is half-saturated. A higher Kd goes with lower affinity.

Read-outs that look alike come from different tables or passages of the source.

With `CC[C@H]1OC(=O)/C=C/[C@H](C)[C@@H](O[C@@H]2O[C@H](C)C[C@H](N(C)C)[C@H]2O)[C@@H](C)C[C@@H](C)C(=O)/C=C/[C@H]2O[C@@H]2[C@]1(O)CO[C@@H]1O[C@H](C)[C@@H](O)[C@@H](OC)[C@H]1OC` [M-II, mycinamicin II], the affinity in test [1], expressed as Kd, was 71.5 ± 8.4 µM. The molecule “spinach ferredoxin (from UniProt P00221 51-147) (natural protein)” yielded a Kd in test [2] of 149 µM. In turn, `CC[C@H]1OC(=O)/C=C/[C@H](C)[C@@H](O[C@@H]2O[C@H](C)C[C@H](N(C)C)[C@H]2O)[C@@H](C)C[C@@H](C)C(=O)/C=C/C=C/[C@@H]1CO[C@@H]1O[C@H](C)[C@@H](O)[C@@H](OC)[C@H]1OC` [M-IV, mycinamicin IV] came in with a Kd in test [1] of 0.7 ± 0.1 µM.

Molecule `CC[C@H]1OC(=O)/C=C/[C@H](C)[C@@H](O[C@@H]2O[C@H](C)C[C@H](N(C)C)[C@H]2O)[C@@H](C)C[C@@H](C)C(=O)/C=C/C=C/[C@]1(O)CO[C@@H]1O[C@H](C)[C@@H](O)[C@@H](OC)[C@H]1OC` [M-V, mycinamicin V] displayed a Kd in test [3] of 10.4 ± 0.2 µM. On to `CC[C@H]1OC(=O)/C=C/[C@@H](C)[C@H](O[C@H]2O[C@@H](C)C[C@@H](N(C)C)[C@@H]2O)[C@H](C)C[C@@H](C)C(=O)/C=C\C=C\[C@H]1C` [M-VIII, mycinamicin VIII], for which, in test [4], the Kd is 28.1 ± 3.2 µM.

B1: N-terminal 6 x His-tagged ferredoxin MycCII (natural protein, Micromonospora griseorubida, UniProt Q83WF4 1-74, looked up)
chain: MRIVLDAERCVGAGQCEATAPELFTQGDDGLGLVRDRPVTPELLGPAREAVDRCPVRAIRIESSVRTGWARGAG
In turn, B1 displayed a Kd in test [5] of 7 ± 0.1 µM.

(Values after article PMC2774819 (Chemistry & biology, 2008).)
